Laboratory results from PubChem BioAssay (NCI).
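Cultured in 96-well plates, cells were exposed to test compound for 48 hours across five concentrations. TGI is the concentration that stops growth completely.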

What was measured:
Experiment in all cases: NCI-60 cell line screen, 48 h
[1] = system: 786-0 renal
[2] = system: A549 NSCLC
[3] = system: ACHN renal
[4] = system: BT-549 breast
[5] = system: CAKI-1 renal
[6] = system: CCRF-CEM leukemia
[7] = system: COLO 205 colon
[8] = system: DU-145 prostate
[9] = system: EKVX NSCLC
[10] = system: HCC-2998 colon
[11] = system: HCT-116 colon
[12] = system: HCT-15 colon
[13] = system: HL-60(TB) leukemia
[14] = system: HOP-62 NSCLC
[15] = system: HOP-92 NSCLC
[16] = system: HT29 colon
[17] = system: IGROV1 ovarian
[18] = system: K-562 leukemia
[19] = system: KM12 colon
[20] = system: LOX IMVI melanoma
[21] = system: M14 melanoma
[22] = system: MALME-3M melanoma
[23] = system: MCF7 breast
[24] = system: MDA-MB-231 breast
[25] = system: MDA-MB-435
[26] = system: MDA-N
[27] = system: MOLT-4 leukemia
[28] = system: NCI-H226 lung
[29] = system: NCI-H23 lung
[30] = system: NCI-H460 lung
[31] = system: NCI-H522 lung
[32] = system: NCI/ADR-RES ovarian
[33] = system: OVCAR-3 ovarian
[34] = system: OVCAR-4 ovarian
[35] = system: OVCAR-5 ovarian
[36] = system: OVCAR-8 ovarian
[37] = system: PC-3 prostate
[38] = system: RPMI-8226 leukemia
[39] = system: RXF 393 renal
[40] = system: SF-268 CNS
[41] = system: SF-295 CNS
[42] = system: SF-539 CNS
[43] = system: SK-MEL-2 melanoma
[44] = system: SK-MEL-5 melanoma
[45] = system: SK-OV-3 ovarian
[46] = system: SN12C renal
[47] = system: SNB-75 CNS
[48] = system: SR leukemia
[49] = system: SW-620 colon
[50] = system: T-47D breast
[51] = system: TK-10 renal
[52] = system: U251 CNS
[53] = system: UACC-257 melanoma
[54] = system: UACC-62 melanoma
[55] = system: UO-31 renal
[56] = system: A498 renal
[57] = system: SK-MEL-28 melanoma
[58] = system: SNB-19 CNS

SMILES: O=C1/C(=C/c2ccco2)N=C(c2ccccc2)N1c1ccc(S(=O)(=O)Nc2nccs2)cc1
- TGI [1]: > 100 µM
- TGI [2]: > 100 µM
- TGI [3]: > 100 µM
- TGI [4]: > 100 µM
- TGI [5]: > 100 µM
- TGI [6]: > 100 µM
- TGI [7]: > 100 µM
- TGI [8]: > 100 µM
- TGI [9]: > 100 µM
- TGI [10]: > 100 µM
- TGI [11]: > 100 µM
- TGI [12]: 94.5 µM
- TGI [13]: > 100 µM
- TGI [14]: > 100 µM
- TGI [15]: > 100 µM
- TGI [16]: > 100 µM
- TGI [17]: > 100 µM
- TGI [18]: > 100 µM
- TGI [19]: > 100 µM
- TGI [20]: > 100 µM
- TGI [21]: > 100 µM
- TGI [22]: > 100 µM
- TGI [23]: > 100 µM
- TGI [24]: > 100 µM
- TGI [25]: > 100 µM
- TGI [26]: > 100 µM
- TGI [27]: > 100 µM
- TGI [28]: > 100 µM
- TGI [29]: > 100 µM
- TGI [30]: > 100 µM
- TGI [31]: > 100 µM
- TGI [32]: > 100 µM
- TGI [33]: > 100 µM
- TGI [34]: > 100 µM
- TGI [35]: > 100 µM
- TGI [36]: > 100 µM
- TGI [37]: > 100 µM
- TGI [38]: > 100 µM
- TGI [39]: > 100 µM
- TGI [40]: > 100 µM
- TGI [41]: > 100 µM
- TGI [42]: > 100 µM
- TGI [43]: > 100 µM
- TGI [44]: > 100 µM
- TGI [45]: > 100 µM
- TGI [46]: > 100 µM
- TGI [47]: > 100 µM
- TGI [48]: > 100 µM
- TGI [49]: > 100 µM
- TGI [50]: > 100 µM
- TGI [51]: > 100 µM
- TGI [52]: > 100 µM
- TGI [53]: 89.5 µM
- TGI [54]: > 100 µM
- TGI [55]: > 100 µM

SMILES: CC(=O)OCC1OC(N2C(=O)NC(=O)C3C=C4CCCCC4=CC32)C(OC(C)=O)C1OC(C)=O (configuration not stated)
- TGI [56]: > 100 µM
- TGI [2]: > 100 µM
- TGI [3]: > 100 µM
- TGI [4]: > 100 µM
- TGI [5]: > 100 µM
- TGI [6]: > 100 µM
- TGI [7]: > 100 µM
- TGI [8]: > 100 µM
- TGI [9]: > 100 µM
- TGI [10]: > 100 µM
- TGI [11]: > 100 µM
- TGI [12]: > 100 µM
- TGI [13]: > 100 µM
- TGI [15]: > 100 µM
- TGI [17]: > 100 µM
- TGI [18]: > 100 µM
- TGI [20]: > 100 µM
- TGI [21]: > 100 µM
- TGI [22]: > 100 µM
- TGI [23]: > 100 µM
- TGI [24]: > 100 µM
- TGI [25]: > 100 µM
- TGI [26]: > 100 µM
- TGI [27]: > 100 µM
- TGI [29]: > 100 µM
- TGI [30]: > 100 µM
- TGI [31]: > 100 µM
- TGI [33]: > 100 µM
- TGI [34]: > 100 µM
- TGI [35]: > 100 µM
- TGI [37]: > 100 µM
- TGI [38]: > 100 µM
- TGI [39]: > 100 µM
- TGI [41]: > 100 µM
- TGI [42]: > 100 µM
- TGI [43]: > 100 µM
- TGI [57]: > 100 µM
- TGI [44]: > 100 µM
- TGI [45]: > 100 µM
- TGI [46]: > 100 µM
- TGI [58]: > 100 µM
- TGI [48]: > 100 µM
- TGI [49]: > 100 µM
- TGI [50]: > 100 µM
- TGI [51]: > 100 µM
- TGI [52]: > 100 µM
- TGI [53]: > 100 µM
- TGI [54]: > 100 µM
- TGI [55]: > 100 µM

SMILES: COc1ccc(/C=C2/SC(c3ccc(Cl)cc3)N(NC(=O)CCCCCCCCC(=O)NN3C(=O)/C(=C\c4ccc(OC)c(OC)c4)SC3c3ccc(Cl)cc3)C2=O)cc1OC (configuration not stated)
- TGI [1]: 76.8 µM
- TGI [56]: 82.1 µM
- TGI [2]: > 100 µM
- TGI [3]: > 100 µM
- TGI [4]: > 100 µM
- TGI [5]: > 100 µM
- TGI [7]: > 100 µM
- TGI [8]: > 100 µM
- TGI [9]: 78.7 µM
- TGI [10]: > 100 µM
- TGI [11]: > 100 µM
- TGI [12]: > 100 µM
- TGI [14]: 57.9 µM
- TGI [15]: 48.8 µM
- TGI [16]: > 100 µM
- TGI [17]: 59.8 µM
- TGI [18]: > 100 µM
- TGI [19]: > 100 µM
- TGI [21]: > 100 µM
- TGI [23]: > 100 µM
- TGI [24]: > 100 µM
- TGI [25]: > 100 µM
- TGI [26]: 98.4 µM
- TGI [27]: > 100 µM
- TGI [28]: > 100 µM
- TGI [29]: 47.1 µM
- TGI [30]: > 100 µM
- TGI [32]: > 100 µM
- TGI [33]: > 100 µM
- TGI [34]: > 100 µM
- TGI [35]: > 100 µM
- TGI [36]: > 100 µM
- TGI [37]: > 100 µM
- TGI [38]: > 100 µM
- TGI [39]: 70.7 µM
- TGI [40]: > 100 µM
- TGI [41]: 59.9 µM
- TGI [42]: 85.5 µM
- TGI [43]: > 100 µM
- TGI [57]: > 100 µM
- TGI [44]: > 100 µM
- TGI [45]: > 100 µM
- TGI [46]: > 100 µM
- TGI [58]: > 100 µM
- TGI [47]: > 100 µM
- TGI [48]: > 100 µM
- TGI [49]: > 100 µM
- TGI [50]: > 100 µM
- TGI [51]: > 100 µM
- TGI [52]: > 100 µM
- TGI [53]: > 100 µM
- TGI [54]: 89.3 µM
- TGI [55]: > 100 µM
